# Laboratory results from patent US6737383B1, “Herbicidal oxadiazolidines” (priority 1999, dated 2004).
# Tests used:
# [1] = system: wild oat; assay: Test E wild oat; format: in vivo, Avena fatua; conditions: Preemergence
# [2] = system: green foxtail; assay: Test E green foxtail; format: in vivo, Setaria viridis; conditions: Preemergence
# [3] = system: winter wheat; assay: Test E winter wheat; format: in vivo, Triticum aestivum; conditions: Postemergence, 0 to 100 scale, 0 is no effect, 100 is complete control
# In short: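 For postemergence, application to 1- to 4-leaf plants growing in a 60:40 sandy loam–potting mix substrate. Formulation: non-phytotoxic solvent mixture plus surfactant. Untreated controls served as the reference for the visual rating after ~21–28 days.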
# [4] = system: winter wheat; assay: Test E winter wheat; format: in vivo, Triticum aestivum; conditions: Preemergence
# [5] = system: corn; assay: Test B pre/postemergence corn; format: in vivo, Zea mays; conditions: for Corn plant response rating: scale of 0 to 10 where 0 is no effect and 10 is complete control
# In short: (§1)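 Herbicidal effect was estimated by eye on a ten-point control scale after plants spent twelve to sixteen days in a greenhouse following soil or foliar treatment. Foliar sprays targeted plants at one to four leaves; all doses were formulated in a non-phytotoxic solvent with surfactant.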
# [6] = system: smallflower flatsedge; assay: Test B flood test smallflower flatsedge; format: in vivo, Cyperus difformis; conditions: for Plant response rating, S. Flatsedge (0 to 10 scale, 0 is no effect, 10 is complete control) / S. Flatsedge plant response rating (0 to 10 scale, 0 is no effect, 10 is complete control): visual evaluation after twelve to sixteen days; for S. Flatsedge plant response rating (0 to 10 scale, 0 is no effect, 10 is complete control): under heading Pre-emergence
# In short: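 Plants were grown to the 2-leaf stage before treatment with test chemical, then held in a greenhouse for twelve to sixteen days. Injury was visually rated against untreated controls on a 0–10 scale, where 0 is no effect and 10 is complete control.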
# [7] = system: soybean; assay: Test B pre/postemergence soybean; format: in vivo, Glycine max; conditions: for Soybean plant response rating: scale of 0 to 10 where 0 is no effect and 10 is complete control
# In short: as §1
# [8] = system: Italian ryegrass; assay: Test E Italian ryegrass; format: in vivo, Lolium multiflorum; conditions: Preemergence
# [9] = system: blackgrass; assay: Test E blackgrass; format: in vivo, Alopecurus myosuroides; conditions: Preemergence
# [10] = system: rape; assay: Test B pre/postemergence rape; format: in vivo, Brassica napus; conditions: for Rape plant response rating: scale of 0 to 10 where 0 is no effect and 10 is complete control
# In short: as §1
# [11] = system: winter barley; assay: Test E winter barley; format: in vivo, Hordeum vulgare; conditions: Preemergence
# [12] = Rate 125 g/ha, 0 to 100 scale (0 no effect, 100 complete control)
# [13] = Rate 500 g/ha, 0 to 100 scale (0 no effect, 100 complete control)
# [14] = Postemergence, Rate 125 g/ha, scale 0 to 10, 0 is no effect, 10 is complete control
# [15] = Postemergence, Rate 250 g/ha, scale 0 to 10, 0 is no effect, 10 is complete control
# [16] = Preemergence, Rate 62 g/ha, scale 0 to 10 (0 no effect, 10 complete control)
# [17] = Rate 500 g/ha, Postemergence, scale 0 to 10, 0 no effect, 10 complete control
# [18] = Rate 62 g/ha, flood test species, Pre-emergence
# [19] = Rate 125 g/ha, flood test species
# [20] = Rate 250 g/ha, Pre-emergence, flood-test species, scale 0 to 10, 0 is no effect, 10 is complete control
# [21] = Rate 500 g/ha, Pre-emergence, flood test species, scale 0 to 10 (0 no effect, 10 complete control)
structure (smiles),measurement,setting,value
CC1CC1n1c(=O)on(C(=O)N(c2ccc(F)cc2F)C(C)C)c1=O (stereo not shown) [Compound 372],"Plant response rating, Wild oat",[1]; [12],50
same,"Plant response rating, Wild oat","[1]; Rate 250 g/ha, 0 to 100 scale",60
same,"Plant response rating, Wild oat",[1]; [13],80
same,"Plant response rating, Green foxtail",[2]; [12],60
same,"Plant response rating, Green foxtail","[2]; Rate 250 g/ha, 0 to 100 scale",60
same,"Plant response rating, Green foxtail",[2]; [13],100
same,"Plant response rating, Wheat (winter)",[3]; Rate 125 g/ha,65
same,"Plant response rating, Wheat (winter)",[3]; Rate 250 g/ha,70
same,"Plant response rating, Wheat (winter)",[3]; Rate 500 g/ha,80
same,"Plant response rating, Wheat (winter)",[4]; [12],60
same,"Plant response rating, Wheat (winter)","[4]; Rate 250 g/ha, 0 to 100 scale",50
same,"Plant response rating, Wheat (winter)",[4]; [13],70
same,"Plant response rating, Corn",[5]; [14],0
same,"Plant response rating, Corn",[5]; [15],0
same,"Plant response rating, Corn",[5]; [16],2
same,Corn plant response rating (0 to 10 scale),"[5]; Preemergence, Rate 125 g/ha",2
same,Corn plant response rating,"[5]; Preemergence, Rate 250 g/ha",9
same,Corn plant response rating,"[5]; Preemergence, Rate 500 g/ha",9
same,Corn plant response rating,"[5]; Rate 62 g/ha, Postemergence",0
same,"Plant response rating, Corn",[5]; [17],3
same,"Plant response rating, S. Flatsedge","[6]; Postemergence (flood test), Rate 125 g/ha, scale 0 to 10, 0 is no effect, 10 is complete control",2
same,S. Flatsedge plant response rating,"[6]; Rate 62 g/ha, Postemergence (flood test species), scale of 0 to 10 where 0 is no effect and 10 is complete control",2
same,"Plant response rating, S. Flatsedge (0 to 10 scale, 0 is no effect, 10 is complete control)",[6]; [18],0
same,"S. Flatsedge plant response rating (0 to 10 scale, 0 is no effect, 10 is complete control)",[6]; [19],0
same,S. Flatsedge plant response rating,[6]; [20],0
same,"Plant response rating, S. Flatsedge","[6]; Rate 500 g/ha, listed under Postemergence (flood test species), scale 0 to 10, 0 no effect, 10 complete control",8
same,S. Flatsedge plant response rating,[6]; [21],0
same,"Plant response rating, S. Flatsedge","[6]; flood test species, listed under Postemergence, Rate 250 g/ha, scale 0 to 10, 0 is no effect, 10 is complete control",8
same,"Plant response rating, Soybean",[7]; [14],1
same,"Plant response rating, Soybean",[7]; [15],2
same,"Plant response rating, Soybean",[7]; [16],0
same,Soybean plant response rating (0 to 10 scale),"[7]; Preemergence, Rate 125 g/ha",0
same,Soybean plant response rating,"[7]; Preemergence, Rate 250 g/ha",0
same,Soybean plant response rating,"[7]; Preemergence, Rate 500 g/ha",2
same,Soybean plant response rating,"[7]; Rate 62 g/ha, Postemergence",1
same,"Plant response rating, Soybean",[7]; [17],3
same,"Plant response rating, I. Ryegrass",[8]; [12],60
same,"Plant response rating, I. Ryegrass","[8]; Rate 250 g/ha, 0 to 100 scale",70
same,"Plant response rating, I. Ryegrass",[8]; [13],85
same,"Plant response rating, Blackgrass",[9]; [12],70
same,"Plant response rating, Blackgrass","[9]; Rate 250 g/ha, 0 to 100 scale",60
same,"Plant response rating, Blackgrass",[9]; [13],100
same,"Plant response rating, Rape",[10]; [15],3
same,"Plant response rating, Rape",[10]; [16],5
same,Rape plant response rating (0 to 10 scale),"[10]; Preemergence, Rate 125 g/ha",5
same,Rape plant response rating,"[10]; Preemergence, Rate 250 g/ha",10
same,Rape plant response rating,"[10]; Preemergence, Rate 500 g/ha",10
same,Rape plant response rating,"[10]; Rate 62 g/ha, Postemergence",2
same,"Plant response rating, Rape",[10]; [17],5
same,"Plant response rating, Barley (winter)",[11]; [12],60
same,"Plant response rating, Barley (winter)","[11]; Rate 250 g/ha, 0 to 100 scale, 0 no effect, 100 complete control",70
same,"Plant response rating, Barley (winter)",[11]; [13],70
CC(C)N(C(=O)n1oc(=O)n(CC2CCOC2)c1=O)c1ccc(F)cc1 (stereo not shown) [Compound 375],"Plant response rating, Wild oat",[1]; [12],55
same,"Plant response rating, Wild oat","[1]; Rate 250 g/ha, 0 to 100 scale",60
same,"Plant response rating, Wild oat",[1]; [13],70
same,"Plant response rating, Green foxtail",[2]; [12],50
same,"Plant response rating, Green foxtail","[2]; Rate 250 g/ha, 0 to 100 scale",60
same,"Plant response rating, Green foxtail",[2]; [13],70
same,"Plant response rating, Wheat (winter)",[3]; Rate 125 g/ha,35
same,"Plant response rating, Wheat (winter)",[3]; Rate 250 g/ha,35
same,"Plant response rating, Wheat (winter)",[3]; Rate 500 g/ha,50
same,"Plant response rating, Wheat (winter)",[4]; [12],30
same,"Plant response rating, Wheat (winter)","[4]; Rate 250 g/ha, 0 to 100 scale",40
same,"Plant response rating, Wheat (winter)",[4]; [13],50
same,"Plant response rating, Corn",[5]; [14],0
same,"Plant response rating, Corn",[5]; [15],0
same,"Plant response rating, Corn",[5]; [16],0
same,Corn plant response rating (0 to 10 scale),"[5]; Preemergence, Rate 125 g/ha",2
same,Corn plant response rating,"[5]; Preemergence, Rate 250 g/ha",2
same,Corn plant response rating,"[5]; Preemergence, Rate 500 g/ha",7
same,Corn plant response rating,"[5]; Rate 62 g/ha, Postemergence",0
same,"Plant response rating, Corn",[5]; [17],2
same,"Plant response rating, S. Flatsedge (0 to 10 scale, 0 is no effect, 10 is complete control)",[6]; [18],0
same,"S. Flatsedge plant response rating (0 to 10 scale, 0 is no effect, 10 is complete control)",[6]; [19],0
same,S. Flatsedge plant response rating,[6]; [20],0
same,S. Flatsedge plant response rating,[6]; [21],0
same,"Plant response rating, Soybean",[7]; [14],1
same,"Plant response rating, Soybean",[7]; [15],1
same,"Plant response rating, Soybean",[7]; [16],0
same,Soybean plant response rating (0 to 10 scale),"[7]; Preemergence, Rate 125 g/ha",0
same,Soybean plant response rating,"[7]; Preemergence, Rate 250 g/ha",0
same,Soybean plant response rating,"[7]; Preemergence, Rate 500 g/ha",0
same,Soybean plant response rating,"[7]; Rate 62 g/ha, Postemergence",1
same,"Plant response rating, Soybean",[7]; [17],2
same,"Plant response rating, I. Ryegrass",[8]; [12],50
same,"Plant response rating, I. Ryegrass","[8]; Rate 250 g/ha, 0 to 100 scale",70
same,"Plant response rating, I. Ryegrass",[8]; [13],65
same,"Plant response rating, Blackgrass",[9]; [12],20
same,"Plant response rating, Blackgrass","[9]; Rate 250 g/ha, 0 to 100 scale",60
same,"Plant response rating, Blackgrass",[9]; [13],65
same,"Plant response rating, Rape",[10]; [14],0
same,"Plant response rating, Rape",[10]; [15],0
same,"Plant response rating, Rape",[10]; [16],0
same,Rape plant response rating (0 to 10 scale),"[10]; Preemergence, Rate 125 g/ha",2
same,Rape plant response rating,"[10]; Preemergence, Rate 250 g/ha",6
same,Rape plant response rating,"[10]; Preemergence, Rate 500 g/ha",8
same,Rape plant response rating,"[10]; Rate 62 g/ha, Postemergence",0
same,"Plant response rating, Rape",[10]; [17],2
same,"Plant response rating, Barley (winter)",[11]; [12],35
same,"Plant response rating, Barley (winter)",[11]; [13],30
